Laboratory results as given in PubChem BioAssay (NCI).
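Where inhibition never reached the appropriate level, the endpoint shown equals the highest concentration tested. Otherwise, values were interpolated linearly from a five-concentration, 48-hour dose response in 96-well plates. At the TGI there is no net growth.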

Assays:
Experiment in all cases: DTP human tumour cell line panel, 48 h
[1] = system: KM12 colon
[2] = system: T-47D breast
[3] = system: NCI-H460 lung
[4] = system: HCC-2998 colon
[5] = system: ACHN renal
[6] = system: DU-145 prostate
[7] = system: NCI-H522 lung
[8] = system: NCI-H23 lung
[9] = system: SK-MEL-28 melanoma
[10] = system: TK-10 renal
[11] = system: SF-268 CNS
[12] = system: HT29 colon
[13] = system: BT-549 breast
[14] = system: CCRF-CEM leukemia
[15] = system: MDA-MB-231 breast
[16] = system: SF-295 CNS
[17] = system: MDA-N
[18] = system: HCT-116 colon
[19] = system: IGROV1 ovarian
[20] = system: EKVX NSCLC
[21] = system: MOLT-4 leukemia
[22] = system: MCF7 breast
[23] = system: M14 melanoma
[24] = system: SNB-19 CNS
[25] = system: A498 renal
[26] = system: UACC-257 melanoma
[27] = system: COLO 205 colon
[28] = system: SK-MEL-5 melanoma
[29] = system: SR leukemia
[30] = system: 786-0 renal
[31] = system: OVCAR-8 ovarian
[32] = system: MALME-3M melanoma
[33] = system: HOP-62 NSCLC
[34] = system: NCI-H226 lung
[35] = system: SW-620 colon
[36] = system: RPMI-8226 leukemia
[37] = system: MDA-MB-435
[38] = system: SK-OV-3 ovarian
[39] = system: K-562 leukemia
[40] = system: PC-3 prostate
[41] = system: HS 578T breast
[42] = system: SF-539 CNS
[43] = system: SNB-75 CNS
[44] = system: CAKI-1 renal
[45] = system: HL-60(TB) leukemia
[46] = system: A549 NSCLC
[47] = system: HCT-15 colon
[48] = system: UO-31 renal
[49] = system: UACC-62 melanoma
[50] = system: SN12C renal
[51] = system: U251 CNS
[52] = system: LOX IMVI melanoma
[53] = system: OVCAR-3 ovarian
[54] = system: SK-MEL-2 melanoma
[55] = system: OVCAR-5 ovarian
[56] = system: RXF 393 renal
[57] = system: HOP-92 NSCLC

## Cc1cccc(NS(=O)(=O)c2ccc3c(c2)OCCOCCOCCOCCO3)c1
[1]
  TGI: > 100 µM
[2]
  TGI: > 100 µM
[3]
  TGI: > 100 µM
[4]
  TGI: > 100 µM
[5]
  TGI: > 100 µM
[6]
  TGI: > 100 µM
[7]
  TGI: 65.5 µM
[8]
  TGI: > 100 µM
[9]
  TGI: > 100 µM
[10]
  TGI: > 100 µM
[11]
  TGI: > 100 µM
[12]
  TGI: > 100 µM
[13]
  TGI: > 100 µM
[14]
  TGI: > 100 µM
[15]
  TGI: > 100 µM
[16]
  TGI: > 100 µM
[17]
  TGI: > 100 µM
[18]
  TGI: > 100 µM
[19]
  TGI: > 100 µM
[20]
  TGI: > 100 µM
[21]
  TGI: > 100 µM
[22]
  TGI: > 100 µM
[23]
  TGI: > 100 µM
[24]
  TGI: > 100 µM
[25]
  TGI: > 100 µM
[26]
  TGI: > 100 µM
[27]
  TGI: > 100 µM
[28]
  TGI: > 100 µM
[29]
  TGI: > 100 µM
[30]
  TGI: > 100 µM
[31]
  TGI: > 100 µM
[32]
  TGI: > 100 µM
[33]
  TGI: > 100 µM
[34]
  TGI: > 100 µM
[35]
  TGI: > 100 µM
[36]
  TGI: > 100 µM
[37]
  TGI: > 100 µM
[38]
  TGI: > 100 µM
[39]
  TGI: > 100 µM
[40]
  TGI: > 100 µM
[41]
  TGI: > 100 µM
[42]
  TGI: > 100 µM
[43]
  TGI: > 100 µM
[44]
  TGI: > 100 µM
[45]
  TGI: > 100 µM
[46]
  TGI: > 100 µM
[47]
  TGI: > 100 µM
[48]
  TGI: > 100 µM
[49]
  TGI: > 100 µM
[50]
  TGI: > 100 µM

## CCOC(=O)NC(NCC(O)c1ccccc1)(C(F)(F)F)C(F)(F)F (configuration not stated)
[1]
  TGI: > 100 µM
[2]
  TGI: > 100 µM
[3]
  TGI: > 100 µM
[4]
  TGI: > 100 µM
[5]
  TGI: > 100 µM
[6]
  TGI: > 100 µM
[7]
  TGI: > 100 µM
[51]
  TGI: > 100 µM
[52]
  TGI: > 100 µM
[8]
  TGI: > 100 µM
[9]
  TGI: > 100 µM
[10]
  TGI: > 100 µM
[11]
  TGI: > 100 µM
[12]
  TGI: > 100 µM
[13]
  TGI: > 100 µM
[14]
  TGI: > 100 µM
[15]
  TGI: > 100 µM
[17]
  TGI: > 100 µM
[18]
  TGI: > 100 µM
[19]
  TGI: > 100 µM
[53]
  TGI: > 100 µM
[20]
  TGI: > 100 µM
[21]
  TGI: > 100 µM
[22]
  TGI: > 100 µM
[23]
  TGI: > 100 µM
[24]
  TGI: > 100 µM
[25]
  TGI: > 100 µM
[26]
  TGI: > 100 µM
[28]
  TGI: > 100 µM
[29]
  TGI: > 100 µM
[32]
  TGI: > 100 µM
[33]
  TGI: > 100 µM
[34]
  TGI: > 100 µM
[35]
  TGI: > 100 µM
[36]
  TGI: > 100 µM
[37]
  TGI: > 100 µM
[54]
  TGI: > 100 µM
[38]
  TGI: > 100 µM
[39]
  TGI: > 100 µM
[41]
  TGI: > 100 µM
[42]
  TGI: > 100 µM
[55]
  TGI: > 100 µM
[43]
  TGI: > 100 µM
[44]
  TGI: > 100 µM
[45]
  TGI: > 100 µM
[46]
  TGI: > 100 µM
[47]
  TGI: > 100 µM
[48]
  TGI: > 100 µM
[56]
  TGI: > 100 µM
[49]
  TGI: > 100 µM
[50]
  TGI: > 100 µM
[57]
  TGI: > 100 µM
